# In patent EP2326172B1, “ANTIFUNGAL AGENTS” (Scynexis, Inc., priority 2008, dated 2010):
# Target: T1, glucan synthase (GS) (Candida albicans, UniProt O13428)
# T1 construct: Extraction of GS activity from membranes was performed at a protein concentration of 5 mg/mL in extraction buffer; endogenous in cells; host or cells: Candida albicans MY1055 (membrane fraction, detergent extract, product entrapment)
# Assay: Glucan synthase inhibition (polymerization assay, 96-well, 3H-UDPG incorporation)
# Type: biochemical
# Details: not given
# Procedure: The in vitro evaluation of glucan synthase inhibitory activity of compounds was measured in a polymerization assay in 96-well format. Each well contained 100 µL of ^3H-UDPG at 0.5 mM (6000 to 8000 dpm/nmol), 50 mM HEPES pH 7.5 (Sigma), 10% w/v glycerol (Sigma), 1.5 mg/mL bovine serum albumin (Sigma A 9647. Lot 44H0190), 25 mM KF (Fisher), 1 mM EDTA (Gibco ULTRAPURE), 25 µM GTP-γ-S, enzyme sufficient to give 3 to 6 nmoles incorporation during the 60 min incubation at 22°C, and test compound added from wells in 3-fold serial dilutions in 100% DMSO (1 µL/well). The reaction was stopped by the addition of 100 µL of 20% trichloroacetic acid. Plates were chilled for a minimum of 10 min, and precipitated glucan collected by filtration on GF/C plates (Packard UNIFILTER®-96), washed with 5 cycles of water (about 1 mL/well each cycle) using a Packard FILTERMATE HARVESTER. 40 µL/well scintillation fluid (Packard ULTIMA GOLD TM-XR) was added and the sealed plates counted in a WALLAC BETA counter in top-counting mode at an efficiency of approximately 40%.
# Stock solutions were stored at 10 mg/mL in DMSO at -20°C. For each new enzyme preparation, the initial titration performed started at 1 mg/mL, which was prepared by making a 10-fold dilution in DMSO (5 µL to 50 µL). 40 µL of this stock was placed in column 12 of a round-bottomed 96-well microtiter plate. 40 µL DMSO was added to columns 1 to 11 in the same row and ten 3-fold serial dilutions performed, by transferring 20 µL from column 12 to column 11 etc., with 4 mixings before each transfer. No test compound was transferred to from column 2 to column 1. Duplicate aliquots of 1 µL of all 12 dilutions were then transferred to the side walls of a 96-well Bioblock 1.1 mL plate (Fisher brand) to create two rows.
# Graphs of the primary data were created in PRISM software (the average of two determinations) using PRISM's curve fitting program (sigmoidal dose response non-linear regression). The amount of compound required to inhibit glucan synthase activity by 50% in this assay (IC50 - ng/mL) was calculated.
# Routine analysis was performed with glucan synthase (GS) prepared from Candida albicans MY1055 by the following procedure: MY1055 was grown in 10 liters YPD medium (10 g yeast extract, 20 g tryptone, 20 g glucose per liter) with vigorous shaking at 30°C, to early stationary phase. Cells were harvested by centrifugation, the pellet was washed and frozen at -70°C until breakage. Thawed pellets were shaken with an equal volume of breakage buffer (50 mM HEPES pH 7.4, 10% glycerol, 1 mM EDTA, 1 mM PMSF, 1mM DTT) and 4 times their weight of 0.5 mm acid washed glass beads for 2 hours at 4°C. Extent of breakage was assessed visually at 40x magnification. After low speed centrifugation to remove cell debris, the supernatant was centrifuged at 100,000 x g for 60 min. to separate membranes plus ribosomes from cytoplasmic components. Membranes were further washed two additional times with breakage buffer using the same centrifugation conditions and finally suspended in breakage buffer at 25 to 30 mg/mL protein (Biorad) for storage at -70°C. Extraction of GS activity from membranes was performed at a protein concentration of 5 mg/mL in extraction buffer (50mM NaPO4 pH 7.5, 0.1 M KCl, 0.1M Na citrate, 20% glycerol, 5 µM GTP-γ-S, 1mM DTT, 1 mM PMSF, 3 µg/mL pepstatin) plus 0.25% W1 by gentle mixing at 4°C for 60 min, followed by centrifugation at 100,000 x g for 60 min. After centrifugation, clear supernatant was removed from a pellet consisting of a hard layer usually with small amounts of gelatinous unextracted membranes above it.
# Trapping was initiated immediately by 5-fold dilution in trapping buffer (50 mM HEPES pH 7.5, 10 mM KF, 1 mM EDTA, 2 mg/mL BSA) plus 2.5 mM UDPG and 10µM GTP-γ-S. After incubation at 25°C for 60 to 90 minutes, glucan was harvested by low speed centrifugation (3,000 x g, 10 min). […]
# T1 sequence (O13428 1-1897): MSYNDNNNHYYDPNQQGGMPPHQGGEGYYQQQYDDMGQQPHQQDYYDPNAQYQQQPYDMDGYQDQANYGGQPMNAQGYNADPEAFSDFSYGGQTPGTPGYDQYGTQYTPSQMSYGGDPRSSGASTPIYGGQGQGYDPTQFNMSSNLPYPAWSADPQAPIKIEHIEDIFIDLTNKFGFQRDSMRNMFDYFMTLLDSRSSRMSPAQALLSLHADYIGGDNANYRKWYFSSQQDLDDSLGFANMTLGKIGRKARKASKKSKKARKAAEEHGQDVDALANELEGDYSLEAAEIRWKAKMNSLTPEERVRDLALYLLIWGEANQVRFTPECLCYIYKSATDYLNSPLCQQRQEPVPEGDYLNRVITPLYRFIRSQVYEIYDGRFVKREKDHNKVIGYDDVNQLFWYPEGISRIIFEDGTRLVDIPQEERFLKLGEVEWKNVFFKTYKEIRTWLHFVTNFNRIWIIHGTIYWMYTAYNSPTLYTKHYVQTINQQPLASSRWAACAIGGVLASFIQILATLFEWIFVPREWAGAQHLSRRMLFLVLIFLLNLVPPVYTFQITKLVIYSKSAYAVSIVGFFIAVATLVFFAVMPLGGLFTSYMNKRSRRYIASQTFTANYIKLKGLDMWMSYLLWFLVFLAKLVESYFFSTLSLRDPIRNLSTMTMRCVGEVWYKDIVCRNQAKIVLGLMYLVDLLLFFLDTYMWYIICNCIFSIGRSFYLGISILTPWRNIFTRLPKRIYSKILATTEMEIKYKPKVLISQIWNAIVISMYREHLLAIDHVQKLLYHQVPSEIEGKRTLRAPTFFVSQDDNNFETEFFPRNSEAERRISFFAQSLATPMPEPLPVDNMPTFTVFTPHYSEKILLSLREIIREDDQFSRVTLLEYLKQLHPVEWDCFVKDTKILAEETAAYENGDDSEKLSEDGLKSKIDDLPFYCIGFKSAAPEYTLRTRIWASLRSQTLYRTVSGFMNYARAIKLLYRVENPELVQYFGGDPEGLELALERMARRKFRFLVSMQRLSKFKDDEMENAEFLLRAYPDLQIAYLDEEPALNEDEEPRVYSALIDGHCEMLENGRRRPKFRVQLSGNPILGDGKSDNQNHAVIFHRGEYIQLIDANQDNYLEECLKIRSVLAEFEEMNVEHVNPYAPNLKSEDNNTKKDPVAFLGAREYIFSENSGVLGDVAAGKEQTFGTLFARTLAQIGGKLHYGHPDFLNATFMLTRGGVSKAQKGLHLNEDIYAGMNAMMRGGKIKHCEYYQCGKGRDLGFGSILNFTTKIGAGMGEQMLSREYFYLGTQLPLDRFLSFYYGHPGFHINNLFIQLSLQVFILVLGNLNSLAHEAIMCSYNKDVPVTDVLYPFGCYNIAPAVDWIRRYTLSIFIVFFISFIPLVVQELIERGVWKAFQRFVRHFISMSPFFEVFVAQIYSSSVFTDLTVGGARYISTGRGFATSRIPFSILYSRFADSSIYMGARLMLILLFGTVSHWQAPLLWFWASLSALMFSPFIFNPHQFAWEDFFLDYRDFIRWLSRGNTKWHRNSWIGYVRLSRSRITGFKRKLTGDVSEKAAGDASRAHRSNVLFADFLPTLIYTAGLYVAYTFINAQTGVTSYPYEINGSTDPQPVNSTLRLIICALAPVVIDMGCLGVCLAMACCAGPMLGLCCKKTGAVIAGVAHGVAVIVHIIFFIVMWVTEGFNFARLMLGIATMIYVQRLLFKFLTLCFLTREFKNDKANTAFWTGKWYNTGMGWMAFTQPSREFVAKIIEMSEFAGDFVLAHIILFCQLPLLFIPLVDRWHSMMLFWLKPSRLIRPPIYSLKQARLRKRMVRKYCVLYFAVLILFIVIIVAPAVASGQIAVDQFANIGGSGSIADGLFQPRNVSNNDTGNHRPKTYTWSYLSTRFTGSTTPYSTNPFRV
# T1 sequence (O42825 1-195 partner limits assumed): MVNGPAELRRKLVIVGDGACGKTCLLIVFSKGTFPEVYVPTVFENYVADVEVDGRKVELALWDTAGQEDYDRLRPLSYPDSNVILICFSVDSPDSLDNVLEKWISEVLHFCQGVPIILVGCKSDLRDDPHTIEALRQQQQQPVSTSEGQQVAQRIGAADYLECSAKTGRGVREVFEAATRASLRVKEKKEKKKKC
row,Structure (SMILES),IC50 [nM]
1,"CC(C)[C@@H](C)[C@@]1(C)CC[C@]2(C)[C@H]3CC[C@@H]4[C@@]5(COC[C@@]4(C)[C@@H](OC[C@](C)(N)C(C)(C)C)[C@H](n4ncnc4-c4ccncc4)C5)C3=CC[C@@]2(C)[C@@H]1C(=O)O [Example 173, (1S,4aR,6aS,7R,8R,10aR,10bR,12aR,14R,15R)-15-[[(2R)-2-amino-2,3,3-trimethylbutyl]oxy]-8-[(1R)-1,2-dimethylpropyl]-14-[5-(4-pyridinyl)-1H-1,2,4-triazol-1-yl]-1,6,6a,7,8,9,10,10a,10b,11,12,12a-dodecahydro-1,6a,8,10a-tetramethyl-4H-1,4a-propano-2H-phenanthro[1,2-c]pyran-7-carboxylic acid]",0.822

# Same assay, conditions: glucan synthase prepared from Candida albicans MY1055; 60 min incubation at 22°C; read-out: Candida Albicans GS IC50 (ng/mL) (converted)
row,Structure (SMILES),IC50 [nM]
1,"CNC1(CO[C@H]2[C@H](n3ncnc3C(N)=O)C[C@@]34COC[C@]2(C)[C@@H]3CC[C@H]2C4=CC[C@@]3(C)[C@H](C(=O)O)[C@@](C)([C@H](C)C(C)C)CC[C@]23C)CCOCC1 [Example 46, (1S,4aR,6aS,7R,8R,10aR,10bR,12aR,14R,15R)-14-[5-(aminocarbonyl)-1H-1,2,4-triazol-1-yl]-8-[(1R)-1,2-dimethylpropyl]-15-[[tetrahydro-4-(methylamino)-2H-pyran-4-yl]methoxy]-1,6,6a,7,8,9,10,10a,10b,11,12,12a-dodecahydro-1,6a,8,10a-tetramethyl-4H-1,4a-propano-2H-phenanthro[1,2-c]pyran-7-carboxylic acid]",8.45
2,"CC(C)[C@@H](C)[C@@]1(C)CC[C@]2(C)[C@H]3CC[C@@H]4[C@@]5(COC[C@@]4(C)[C@@H](OC[C@](C)(N)C(C)C)[C@H](n4ncnc4-c4cccnc4)C5)C3=CC[C@@]2(C)[C@@H]1C(=O)O [Example 182, (1S,4aR,6aS,7R,8R,10aR,10bR,12aR,14R,15R)-15-[[(2R)-2-amino-2,3-dimethylbutyl]oxy]-8-[(1R)-1,2-dimethylpropyl]-14-[5-(3-pyridinyl)-1H-1,2,4-triazol-1-yl]-1,6,6a,7,8,9,10,10a,10b,11,12,12a-dodecahydro-1,6a,8,10a-tetramethyl-4H-1,4a-propano-2H-phenanthro[1,2-c]pyran-7-carboxylic acid]",5.59
3,"CCC(N)(CC)CO[C@H]1[C@H](n2ncnc2C(=O)NC)C[C@@]23COC[C@]1(C)[C@@H]2CC[C@H]1C3=CC[C@@]2(C)[C@H](C(=O)O)[C@@](C)([C@H](C)C(C)C)CC[C@]12C [Example 101, (1S,4aR,6aS,7R,8R,10aR,10bR,12aR,14R,15R)-15-(2-amino-2-ethylbutoxy)-8-[(1R)-1,2-dimethylpropyl]-14-[5-[(methylamino)carbonyl]-1H-1,2,4-triazol-1-yl]-1,6,6a,7,8,9,10,10a,10b,11,12,12a-dodecahydro-1,6a,8,10a-tetramethyl-4H-1,4a-propano-2H-phenanthro[1,2-c]pyran-7-carboxylic acid]",18.7
4,"CCCN[C@@](C)(CO[C@H]1[C@H](n2ncnc2C(=O)NC)C[C@@]23COC[C@]1(C)[C@@H]2CC[C@H]1C3=CC[C@@]2(C)[C@H](C(=O)O)[C@@](C)([C@H](C)C(C)C)CC[C@]12C)C(C)C [Example 53, (1S,4aR,6aS,7R,8R,10aR,10bR,12aR,14R,15R)-8-[(1R)-1,2-dimethylpropyl]-15-[[(2R)-2,3-dimethyl-2-(propylamino)butyl]oxy]-14-[5-[(methylamino)carbonyl]-1H-1,2,4-triazol-1-yl]-1,6,6a,7,8,9,10,10a,10b,11,12,12a-dodecahydro-1,6a,8,10a-tetramethyl-4H-1,4a-propano-2H-phenanthro[1,2-c]pyran-7-carboxylic acid]",42
5,"CC(C)[C@@H](C)[C@@]1(C)CC[C@]2(C)[C@H]3CC[C@@H]4[C@@]5(COC[C@@]4(C)[C@@H](OC[C@](C)(N)C(C)(C)C)[C@H](n4ncnc4-c4ccc[n+]([O-])c4)C5)C3=CC[C@@]2(C)[C@@H]1C(=O)O [Example 261, (1S,4aR,6aS,7R,8R,10aR,10bR,12aR,14R,15R)-15-[[(2R)-2-amino-2,3,3-trimethylbutyl]oxy]-8-[(1R)-1,2-dimethylpropyl]-14-[5-(1-oxido-3-pyridinyl)-1H-1,2,4-triazol-1-yl]-1,6,6a,7,8,9,10,10a,10b,11,12,12a-dodecahydro-1,6a,8,10a-tetramethyl-4H-1,4a-propano-2H-phenanthro[1,2-c]pyran-7-carboxylic acid]",2.68
6,"CCN[C@@](C)(CO[C@H]1[C@H](n2ncnc2C(N)=O)C[C@@]23COC[C@]1(C)[C@@H]2CC[C@H]1C3=CC[C@@]2(C)[C@H](C(=O)O)[C@@](C)([C@H](C)C(C)C)CC[C@]12C)C(C)C [Example 43, (1S,4aR,6aS,7R,8R,10aR,10bR,12aR,14R,15R)-14-[5-(aminocarbonyl)-1H-1,2,4-triazol-1-yl]-8-[(1R)-1,2-dimethylpropyl]-15-[[(2R)-2-(ethylamino)-2,3-dimethylbutyl]oxy]-1,6,6a,7,8,9,10,10a,10b,11,12,12a-dodecahydro-1,6a,8,10a-tetramethyl-4H-1,4a-propano-2H-phenanthro[1,2-c]pyran-7-carboxylic acid]",15.5
7,"CC(C)NC(=O)c1ncnn1[C@@H]1C[C@@]23COC[C@](C)([C@@H]2CC[C@H]2C3=CC[C@@]3(C)[C@H](C(=O)O)[C@@](C)([C@H](C)C(C)C)CC[C@]23C)[C@H]1OC[C@](C)(N)C(C)(C)C [Example 93, (1S,4aR,6aS,7R,8R,10aR,10bR,12aR,14R,15R)-15-[[(2R)-2-amino-2,3,3-trimethylbutyl]oxy]-8-[(1R)-1,2-dimethylpropyl]-14-[5-[[(1-methylethyl)amino]carbonyl]-1H-1,2,4-triazol-1-yl]-1,6,6a,7,8,9,10,10a,10b,11,12,12a-dodecahydro-1,6a,8,10a-tetramethyl-4H-1,4a-propano-2H-phenanthro[1,2-c]pyran-7-carboxylic acid]",20.3
8,"CC(C)[C@@H](C)[C@@]1(C)CC[C@]2(C)[C@H]3CC[C@@H]4[C@@]5(COC[C@@]4(C)[C@@H](OC[C@](C)(N)C(C)(C)C)[C@H](n4ncnc4-c4ccncc4F)C5)C3=CC[C@@]2(C)[C@@H]1C(=O)O [Example 208, (1S,4aR,6aS,7R,8R,10aR,10bR,12aR,14R,15R)-15-[[(2R)-2-amino-2,3,3-trimethylbutyl]oxy]-8-[(1R)-1,2-dimethylpropyl]-14-[5-(3-fluoro-4-pyridinyl)-1H-1,2,4-triazol-1-yl]-1,6,6a,7,8,9,10,10a,10b,11,12,12a-dodecahydro-1,6a,8,10a-tetramethyl-4H-1,4a-propano-2H-phenanthro[1,2-c]pyran-7-carboxylic acid]",0.936
9,"CC(C)[C@@H](C)[C@@]1(C)CC[C@]2(C)[C@H]3CC[C@@H]4[C@@]5(COC[C@@]4(C)[C@@H](OC[C@](C)(N)C(C)C)[C@H](n4ncnc4C(=O)N(C)C)C5)C3=CC[C@@]2(C)[C@@H]1C(=O)O [Example 50, (1S,4aR,6aS,7R,8R,10aR,10bR,12aR,14R,15R)-15-[[(2R)-2-amino-2,3-dimethylbutyl]oxy]-14-[5-[(dimethylamino)carbonyl]-1H-1,2,4-triazol-1-yl]-8-[(1R)-1,2-dimethylpropyl]-1,6,6a,7,8,9,10,10a,10b,11,12,12a-dodecahydro-1,6a,8,10a-tetramethyl-4H-1,4a-propano-2H-phenanthro[1,2-c]pyran-7-carboxylic acid]",12.7
